# According to patent US20050222418A1, “Novel tyloindicines and related processes, pharmaceutical compositions and methods” (priority 2002, published 2005):
# Key:
# [1] = tested on: KB cells and its drug resistant cells; experiment: Cross resistance studies in drug resistant cell lines; assay type: cell-based, human; settings: cells resistant to VP-16, VCR, CPT or DOX
# Excerpt: (§1) FIG. 1 illustrates the following referred to in the Examples herein: • “A. Chemical structure” provides the structural formulae for (+)-(S)-tylophorine (also referred to herein as compound “III-2” and DCB-3500); DCB-3501; “compound II-3a of FIG. 15”; and, in FIGS. 18-22, as […]); DCB-3502 (also referred to herein as “compound II-2); and DCB-3503 (also referred to herein as “NSC 716802”; “compound II-3b” of FIG. 15; and “ZH-152”). • “Table 1, B and C” provides EC50 and LD50 values for use of DCB-3500, DCB-3501, DCB-3502, and DCB-3503 against KB and HepG2 cancer cell lines resistant to various anticancer drugs, including VP-16 (etoposide), VCR (vincristine), CPT (camptothecin), and DOX (doxorubicin). • “Table 2 A, and B, and Table 3” illustrate that KB and HepG2 cancer cell lines are inhibited by the compounds of the instant invention. […] At the end of treatment, cells were washed, resuspended in PBS and stained with propidium iodide containing Rnase A for flow cytometric analysis. Data were analyzed using Modfit software.
# FIG. 18 describes cross resistance studies in KB cell lines using DCB-3503.
# (§2) Cells (1×10^4/well) were plated in 24-well plates. After 24 h, cells were treated with drugs for three generation times, then fixed and stained with 0.5% methylene blue in 50% ethanol for 2 h, followed by washing with tap water to remove excess color. Plates were dried and then resuspended in 1% sarkosyl, rotated at room temperature for 3 h. Cell growth was quantitated from the amount of methylene blue absorbed to the cells as measured by a spectrophotometer (Molecular Dynamics) at 595 nm. All experiments were performed in triplicate wells and were repeated at least three times. (see FIG. 1, Table 1B and Table 1C).
# KB cells = experiment: Cell cycle analysis (flow cytometry), KB; assay type: cell-based, human; settings: 24 h treatment
# Excerpt: as §1
# (§3) KB and HepG2 cells were treated for 24 h with increasing concentrations of DCB-3500 and DCB-3503. At the end of treatment, cells were trypsinized, and the resulting cell suspensions were centrifuged at 1000 rpm for 5 min. The cells were fixed overnight in 70% ethanol at 4° C., centrifuged at 1000 rpm for 5 min, the pellets were washed twice with ice-cold PBS. Cell pellets were then resuspended in 0.5 ml PBS containing 50 μg/ml propidium iodide (Sigma-Aldrich) and 100 μg/ml RNase A (Sigma-Aldrich), incubated at 37° C. for 30 min, and then analyzed by FACScan using Cell Quest software (Becton Dickinson Labware, Franklin Lakes, N.J.). Data were analyzed using Modfit LT version 3.1 software (Verity Software House, Topsham, Me.) for cell cycle profile. (FIG. 1, Table 3)
# HepG2 cells = experiment: Cell cycle analysis (flow cytometry), HepG2; assay type: cell-based, human; settings: 24 h treatment
# Excerpt: as §1, §3
# [2] = tested on: NF-κB mediated transcription; experiment: Firefly luciferase reporter assay in HepG2 cells; assay type: cell-based, human; settings: HepG2 cells transfected with pBIIX-luc, TNFa stimulation
# Method: HepG2 cells were transiently transfected with firefly luciferase reporter vectors pMyc-TA-luc, pE2F-TAO-luc, pAP1-luc, pCRE-luc, or pBIIX-luc (containing two tandemly repeated NF-kB binding sites), respectively, along with internal control vector phRL-luc which is a promoterless renilla luciferase reporter vector. The day after transfection, cells were pretreated with increasing concentrations of 3500 for 1 h, then cells were stimulated with serum for 24 h, or TPA, forskolin or TNFa for 6 h Firefly and renilla uciferase activities were measured using Promega's dual-luciferase assay kit Data presented is firefly luciferase activity.
# HepG2 cells were plated at a density of 2×10^4 per well (48-well plate) and transfected with 0.2 μg of firefly luciferase reporter vector pMyc-TA-luc, pE2F-TA-luc, pAP1-luc, pCRE-luc, or pBIIX-luc (containing two tandemly repeated NF-κB binding sites) respectively, along with internal control vector promoter-less renilla luciferase reporter vector phRL (Promega), using FuGENE 6™ transfection reagent according to the manufacturer's instructions. Cell extracts were prepared and luciferase activity was measured using a Dual-luciferase (firefly and renilla luciferase) assay kit according to the manufacturer's instructions.
# [3] = tested on: human cell-line tumor panel; experiment: NCI human cell-line tumor panel (DTP screen); assay type: cell-based; settings: for antitumor activity in NCI in vitro screen: sixty-panel in vitro screen against human-derived tumors; for LC50 for several melanoma and lung cancer cell lines versus the other cell lines: DTP panel; for ranking by average concentration required for total growth inhibition (TGI): screen of 33,744 compounds, fifty-four cell lines
# Excerpt: The ranking system was based on the average concentration required to yield a total growth inhibition (TGI) in the numbers of cell lines of the screen (54 for tylo F and tylo G). […] In fact, for many cell lines, the data were off scale; designated as <10^−10 M.
# [4] = tested on: KB (head and neck cancer); experiment: In vitro cell culture growth inhibition, KB; assay type: cell-based, human
# Method: (§4) Compound II-3 (NSC-716802) was tested in in vitro cell culture studies.
# as §2
# HepG2 (hepatocarcinoma) = experiment: In vitro cell culture growth inhibition, HepG2; assay type: cell-based, human
# Method: as §4, §2
# SK-MEL-2 = experiment: In vitro cell culture growth inhibition, SK-MEL-2; assay type: cell-based, human
# Method: as §4, §2
# KB and HepG2 cells = experiment: Clonogenic assay; assay type: cell-based, human; settings: 24 h exposure, colonies counted after 8 generations
# Method: FIG. 19 illustrates the effect of DCB-3503 (ZH-152) in clonogenic assays. As depicted, cells were seeded at 5×10^4 per well, then DCB-3503 was added at concentrations ⅓, 1× and 3× the IG50. After a 24 h treatment, the cells were recounted and seeded into a fresh 6 well plate at 200 cells per well. After 8 generations of time the colonies were stained with methylene blue and counted. The cloning efficiency for HepG2 was 10% and for KB was 94%. Both cell lines were exposed to DCB-3503 with the concentration indicated for 24 h. The loss of clonegenic efficiency of cells post drug treatment is shown. […] This supports the previous observation using a different procedure.
# They were then grown in the absence of the drug. After eight generations, the colonies were stained and counted.
# Cells (5×10^4/well) were plated in 6-well plates. After 24 h, cells were treated with drugs for an additional 24 h. Cells were then trypsinized, counted, and cell viability was determined by trypan blue staining, 200 trypan blue negative cells were plated in triplicate in 6-well plates and grown for eight to ten generation times, then fixed and stained with 0.5% methylene blue in 50% ethanol for 1 h, after plates were washed and dried, the colonies were counted. (FIG. 1, Table 1C).
# [5] = Toxicity studies in C57BL/6 mice; assay type: in vivo
# Excerpt: FIG. 21 illustrates toxicity studies of DCB-3503 in C57BL/6 mice.
# HepG2 tumor = HepG2 tumor growth inhibition in nude mice; assay type: in vivo; settings: 10 mg/kg ip once daily for 5 days; for tumor growth inhibition: HepG2 tumor-bearing nude mice
# Excerpt: FIG. 22 illustrates toxicity and tumor growth inhibition studies using DCB-3503.
# Four-week-old male NCR-nude mice were obtained from Taconic, and acclimated to laboratory conditions 1 week before tumor implantation. Human HepG2 tumor xenografts were established by injecting subcutaneously 2×10^6 HepG2 cells. […] Tumor weight was estimated by using the equation: Length of tumor×(wide of tumor/2)^2. (FIG. 1(a))
smiles,measurement,setting,value
"COc1cc2c3c(c4cc(OC)c(OC)cc4c2cc1OC)CN1CCCC1C3 (stereo in doubt) [DCB-3500, (+)-(S)-tylophorine]",cross-resistance with conventional anticancer drugs,[1],no cross-resistance
same,effect on cell cycle progression (S phase),KB cells,induce S phase accumulation
same,effect on cell cycle progression (S phase),HepG2 cells,not in HepG2 cells
same,activity against NF-κB mediated transcription,[2],potent activity
COc1cc2c3c(c4cc(OC)c(OC)cc4c2cc1OC)[C@@H](O)[C@@H]1CCCN1C3 [DCB-3501],antitumor activity in NCI in vitro screen,[3],extraordinary antitumor activity
same,cross-resistance with conventional anticancer drugs,[1],no cross-resistance
"COc1cc2c(cc1OC)-c1cc(OC)c(OC)cc1[C@H]1CN3CCCC3C=C21 (stereo partly drawn) [II-2, (S)-2,3,6,7-Tetramethoxy-8b,9,10,11,12,12a-hexahydro-9a-aza-cyclopenta[b]-triphenylene]",antitumor activity in NCI in vitro screen,[3],active
same,antitumor activity in NCI in vitro screen,[3]; listed as NSC-717335,potent antitumor activity
same,potency relative to compound II-3 (times more),[4]; KB cell growth in culture,3 to 5
same,potency relative to compound II-3 (times more),HepG2 (hepatocarcinoma); HepG2 cell growth in culture,3 to 5
same,cross-resistance with conventional anticancer drugs,[1],no cross-resistance
same,activity against NF-κB mediated transcription,[2],potent activity
"COc1cc2c3c(c4cc(OC)c(OC)cc4c2cc1OC)[C@H](O)[C@@H]1CCCN1C3 [II-3, (12S,13S)-2,3,6,7-Tetramethoxy-9,10,11,12,12a,13-hexahydro-9a-aza-cyclopenta[b]triphenylen-13-ol]",antitumor activity in NCI in vitro screen,[3],active
same,antitumor activity in NCI in vitro screen,[3]; listed as 3503,extraordinary antitumor activity
same,antitumor activity in NCI in vitro screen,[3]; listed as NSC-716802,potent antitumor activity
same,GI50,SK-MEL-2,160 nM
same,GI50,[4]; KB,200 nM
same,GI50,HepG2 (hepatocarcinoma); HepG2,60 nM
same,cross-resistance with conventional anticancer drugs,[1],sensitive
same,cross-resistance with conventional anticancer drugs,[1]; listed as 3503,no cross-resistance
same,cross-resistance with conventional anticancer drugs,[1]; listed as ZH-152,still sensitive
same,"loss of clonogenic efficiency, HepG2 versus KB",KB and HepG2 cells,more sensitive
same,"loss of clonogenic efficiency, HepG2 versus KB",KB and HepG2 cells; listed as DCB-3503,HepG2 is much more sensitive than KB cells
same,effect on cell cycle progression (S phase),KB cells,inhibition at targets that are responsible for S-phase progression
same,effect on cell cycle progression (S phase),KB cells; listed as 3503,induce S phase accumulation
same,effect on cell cycle progression (S phase),KB cells; listed as DCB-3503,slows down the cell progress in S-phase
same,effect on cell cycle progression (S phase),HepG2 cells,inhibition at targets that are responsible for S-phase progression
same,effect on cell cycle progression (S phase),HepG2 cells; listed as 3503,not in HepG2 cells
same,effect on cell cycle progression (S phase),HepG2 cells; listed as DCB-3503,slows down the cell progress in S-phase
same,acute toxicity,[5],manageable
same,toxicity (dose causing weight loss),[5],10 mg/kg
same,weight loss,HepG2 tumor; HepG2 tumor-bearing mice,without significant weight loss
same,tumor growth inhibition,HepG2 tumor; 10 mg/kg,profound antitumor effect
same,tumor growth inhibition,"HepG2 tumor; listed as DCB-3503, 10 mg/kg",potent inhibitory activity
same,activity against NF-κB mediated transcription,[2],potent activity
"COc1ccc(C2=C[C@]3(O)CCCN3C[C@@H]2c2ccc(OC)c(OC)c2)cc1 [tylo F, tyloindicine F]",LC50 for several melanoma and lung cancer cell lines versus the other cell lines,[3],two orders of magnitude less
same,ranking by average concentration required for total growth inhibition (TGI),[3],most potent anticancer agents examined
"COc1cc2c(cc1OC)-c1cc(OC)c(OC)cc1[C@H]1CN3CCC[C@@]3(O)C=C21 [tylo G, tyloindicine G]",LC50 for several melanoma and lung cancer cell lines versus the other cell lines,[3],two orders of magnitude less
same,ranking by average concentration required for total growth inhibition (TGI),[3],most potent anticancer agents examined
"COc1cc2c(cc1OC)[C@H]1CN3CCC[C@H]3C=C1c1ccc(OC)c(O)c1-2 [tylo H, tyloindicine H]",antitumor activity in NCI in vitro screen,[3],active
"COc1ccc(C2=CN3CCC[C@H]3C=C2c2cc(O)c(OC)c(OC)c2)cc1OC [tylo I, tyloindicine I]",antitumor activity in NCI in vitro screen,[3],active
